Laboratory results published in ChEMBL document CHEMBL1143658, “Discovery of 2-[(2,4-dichlorophenyl)amino]-N-[(tetrahydro- 2H-pyran-4-yl)methyl]-4-(trifluoromethyl)- 5-pyrimidinecarboxamide, a selective CB2 receptor agonist for the treatment of inflammatory pain” (J Med Chem, 2007).
Calls of active or inactive are those of the source. The calls are words filed in the database; no cut-off is given here.

Assays:
Cannabinoid receptor 2 [1] = biological target: T1, Cannabinoid receptor 2 (Homo sapiens, UniProt P34972); assay: Agonist activity at human recombinant CB2 receptor expressed in Saccharomyces cerevisiae cells; format: functional, cell-based
T1 sequence (P34972 whole entry): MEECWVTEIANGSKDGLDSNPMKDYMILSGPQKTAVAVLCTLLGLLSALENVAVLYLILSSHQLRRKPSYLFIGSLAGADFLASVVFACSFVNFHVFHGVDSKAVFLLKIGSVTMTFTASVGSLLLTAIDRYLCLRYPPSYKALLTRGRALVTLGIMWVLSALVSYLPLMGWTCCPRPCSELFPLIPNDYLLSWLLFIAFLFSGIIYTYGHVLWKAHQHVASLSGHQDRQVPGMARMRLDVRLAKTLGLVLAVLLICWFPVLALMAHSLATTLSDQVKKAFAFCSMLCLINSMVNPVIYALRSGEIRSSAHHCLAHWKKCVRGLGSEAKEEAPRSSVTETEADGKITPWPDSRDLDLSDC

Cannabinoid receptor 2 [2] = biological target: T1, Cannabinoid receptor 2; assay: Efficacy at human recombinant CB2 receptor expressed in Saccharomyces cerevisiae cells relative to HU210; format: cell-based
Rattus norvegicus = assay: Reversal of antihypersensitivity to pain in rat FCA model of inflammatory pain at 15 mg/kg, ip after 1 hr; format: functional, organism-based; set-up: dose 15 mg/kg
Cytochrome P450 1A2 = biological target: T2, Cytochrome P450 1A2 (Homo sapiens, UniProt P05177); assay: Inhibition of human CYP1A2; format: ADME
T2 sequence (P05177 whole entry): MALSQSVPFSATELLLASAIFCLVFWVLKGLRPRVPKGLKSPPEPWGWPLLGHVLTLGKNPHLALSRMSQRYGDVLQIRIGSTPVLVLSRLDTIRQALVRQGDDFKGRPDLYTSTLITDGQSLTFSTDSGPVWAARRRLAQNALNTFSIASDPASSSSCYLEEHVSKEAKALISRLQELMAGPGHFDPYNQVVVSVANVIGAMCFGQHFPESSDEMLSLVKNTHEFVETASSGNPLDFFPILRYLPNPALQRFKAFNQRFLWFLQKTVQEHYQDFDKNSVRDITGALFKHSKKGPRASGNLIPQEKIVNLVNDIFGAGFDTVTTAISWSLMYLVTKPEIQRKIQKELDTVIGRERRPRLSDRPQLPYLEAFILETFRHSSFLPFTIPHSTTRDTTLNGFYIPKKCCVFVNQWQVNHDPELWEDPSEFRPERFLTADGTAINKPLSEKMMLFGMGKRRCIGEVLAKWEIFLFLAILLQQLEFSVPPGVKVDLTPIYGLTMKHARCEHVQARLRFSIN

Cytochrome P450 2C9 = Cytochrome P450 2C9 (Homo sapiens, UniProt P11712); assay: Inhibition of human CYP2C9; format: ADME
Sequence of Cytochrome P450 2C9 (P11712 whole entry): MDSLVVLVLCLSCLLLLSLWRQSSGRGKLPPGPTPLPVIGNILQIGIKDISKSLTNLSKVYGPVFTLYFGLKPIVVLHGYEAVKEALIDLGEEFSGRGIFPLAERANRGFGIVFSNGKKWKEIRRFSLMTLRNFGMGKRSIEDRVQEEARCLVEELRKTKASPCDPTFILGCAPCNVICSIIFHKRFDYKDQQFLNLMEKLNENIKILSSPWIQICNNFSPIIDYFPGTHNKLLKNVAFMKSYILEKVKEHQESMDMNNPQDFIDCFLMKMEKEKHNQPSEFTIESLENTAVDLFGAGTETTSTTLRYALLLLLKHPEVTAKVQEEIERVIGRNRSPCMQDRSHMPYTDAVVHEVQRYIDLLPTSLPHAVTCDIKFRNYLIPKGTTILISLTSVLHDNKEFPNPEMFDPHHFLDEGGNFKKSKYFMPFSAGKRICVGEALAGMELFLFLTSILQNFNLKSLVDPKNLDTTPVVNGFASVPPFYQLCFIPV

Cytochrome P450 2C19 = Cytochrome P450 2C19 (Homo sapiens, UniProt P33261); assay: Inhibition of human CYP2C19; format: ADME
Sequence of Cytochrome P450 2C19 (P33261 whole entry): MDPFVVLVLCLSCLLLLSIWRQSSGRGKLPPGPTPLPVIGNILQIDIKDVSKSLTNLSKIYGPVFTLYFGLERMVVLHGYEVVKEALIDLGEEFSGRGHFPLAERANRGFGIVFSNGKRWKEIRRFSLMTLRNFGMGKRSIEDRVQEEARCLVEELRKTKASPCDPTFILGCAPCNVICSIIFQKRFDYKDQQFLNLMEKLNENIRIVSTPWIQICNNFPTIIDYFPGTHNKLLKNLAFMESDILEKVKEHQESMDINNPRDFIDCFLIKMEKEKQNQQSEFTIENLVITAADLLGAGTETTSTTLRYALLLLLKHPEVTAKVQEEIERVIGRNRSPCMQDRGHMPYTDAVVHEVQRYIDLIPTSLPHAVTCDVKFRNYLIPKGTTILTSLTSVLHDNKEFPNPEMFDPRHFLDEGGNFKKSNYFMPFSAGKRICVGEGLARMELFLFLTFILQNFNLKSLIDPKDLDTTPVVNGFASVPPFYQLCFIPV

Cytochrome P450 2D6 = Cytochrome P450 2D6 (Homo sapiens, UniProt P10635); assay: Inhibition of human CYP2D6; format: ADME
Sequence of Cytochrome P450 2D6 (P10635 whole entry): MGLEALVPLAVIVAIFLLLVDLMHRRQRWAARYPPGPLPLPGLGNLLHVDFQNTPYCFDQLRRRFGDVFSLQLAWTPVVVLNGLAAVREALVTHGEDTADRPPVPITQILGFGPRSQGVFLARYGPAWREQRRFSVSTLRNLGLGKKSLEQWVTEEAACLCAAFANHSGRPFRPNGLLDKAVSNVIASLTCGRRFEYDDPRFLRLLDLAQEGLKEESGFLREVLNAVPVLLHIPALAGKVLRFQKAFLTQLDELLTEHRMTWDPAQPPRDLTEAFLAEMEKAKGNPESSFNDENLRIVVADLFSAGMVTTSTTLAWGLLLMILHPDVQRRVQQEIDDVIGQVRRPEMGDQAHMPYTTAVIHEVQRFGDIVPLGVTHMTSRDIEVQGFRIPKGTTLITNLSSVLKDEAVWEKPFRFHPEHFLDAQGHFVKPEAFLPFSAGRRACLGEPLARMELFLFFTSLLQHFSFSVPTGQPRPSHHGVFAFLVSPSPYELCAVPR

Cytochrome P450 3A4 = Cytochrome P450 3A4 (Homo sapiens, UniProt P08684); assay: Inhibition of human CYP3A4
Sequence of Cytochrome P450 3A4 (P08684 whole entry): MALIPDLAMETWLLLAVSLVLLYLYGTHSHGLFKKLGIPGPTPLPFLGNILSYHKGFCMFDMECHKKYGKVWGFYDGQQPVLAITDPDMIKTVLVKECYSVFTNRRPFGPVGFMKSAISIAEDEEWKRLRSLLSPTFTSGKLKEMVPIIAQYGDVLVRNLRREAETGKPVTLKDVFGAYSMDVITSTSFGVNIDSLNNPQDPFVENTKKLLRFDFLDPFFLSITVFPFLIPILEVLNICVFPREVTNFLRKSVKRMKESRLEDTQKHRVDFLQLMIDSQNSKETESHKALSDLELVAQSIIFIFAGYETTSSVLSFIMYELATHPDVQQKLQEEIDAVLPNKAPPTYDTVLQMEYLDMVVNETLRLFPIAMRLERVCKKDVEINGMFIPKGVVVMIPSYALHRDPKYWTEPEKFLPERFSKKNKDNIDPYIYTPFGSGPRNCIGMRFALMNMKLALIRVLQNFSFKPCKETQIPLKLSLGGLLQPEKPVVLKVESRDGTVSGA

Liver microsomes = assay: Intrinsic clearance in rat liver microsome; format: ADME

| Compound | EC50 (Cannabinoid receptor 2 [1]) | Efficacy (Cannabinoid receptor 2 [2]) | Activity (Rattus norvegicus) | IC50 (Cytochrome P450 1A2) | IC50 (Cytochrome P450 2C9) | IC50 (Cytochrome P450 2C19) | IC50 (Cytochrome P450 2D6) | IC50 (Cytochrome P450 3A4) | CL (Liver microsomes) |
| --- | --- | --- | --- | --- | --- | --- | --- | --- | --- |
| O=C(NCc1cccc(Cl)c1)c1cnc(Nc2cccc(Cl)c2)nc1C(F)(F)F | 1.58 µM | 18% | – | – | – | – | – | – | – |
| O=C(NCc1ccc(Cl)cc1)c1cnc(Nc2cccc(Cl)c2)nc1C(F)(F)F | 0.4 µM | 65% | – | – | – | – | – | – | – |
| COc1ccc(C(=O)c2c(C)n(CCN3CCOCC3)c3cc(I)ccc23)cc1 | – | – | Active | – | – | – | – | – | – |
| O=C(NCc1ccccc1Cl)c1cnc(Nc2cccc(Cl)c2)nc1C(F)(F)F | 10 µM | 21% | – | – | – | – | – | – | – |
| O=C(NCC1CCCCC1)c1cnc(Nc2cccc(Cl)c2)nc1C(F)(F)F | 0.08 µM | 82% | – | > 100 µM | 9 µM | 19 µM | > 100 µM | 82 µM | – |
| N#Cc1ccc(CNC(=O)c2cnc(Nc3cccc(Cl)c3)nc2C(F)(F)F)cc1 | 0.22 µM | 69% | – | – | – | – | – | – | – |
| O=C(NCC1CCOCC1)c1cnc(Nc2cccc(Cl)c2)nc1C(F)(F)F | 0.05 µM | 89% | – | > 100 µM | 18 µM | 56 µM | 51 µM | 51 µM | – |
| O=C(NCc1ccccc1)c1cnc(Nc2cccc(Cl)c2)nc1C(F)(F)F | 0.245 µM | 82% | – | – | – | – | – | – | – |
| COc1ccc(CNC(=O)c2cnc(Nc3cccc(Cl)c3)nc2C(F)(F)F)cc1 | 0.214 µM | 66% | – | – | – | – | – | – | – |
| COc1ccccc1CNC(=O)c1cnc(Nc2cccc(Cl)c2)nc1C(F)(F)F | > 25 µM | 78% | – | – | – | – | – | – | – |
| O=C(NCc1ccccc1)c1cnc(Nc2ccccc2)nc1C(F)(F)F | 0.4 µM | 45% | – | – | – | – | – | – | < 0.5 mL/min/g |
| O=C(NCC1CCOCC1)c1cnc(Nc2cc(F)cc(F)c2)nc1C(F)(F)F | 0.125 µM | 91% | – | 24 µM | > 100 µM | 91 µM | 45 µM | > 100 µM | – |
| O=C(NCC1CCCC1)c1cnc(Nc2cccc(Cl)c2)nc1C(F)(F)F | 0.08 µM | 83% | – | 32 µM | 6 µM | 14 µM | > 100 µM | 65 µM | – |
| COc1cccc(Nc2ncc(C(=O)NCc3ccccc3)c(C(F)(F)F)n2)c1 | 0.465 µM | 76% | – | – | – | – | – | – | – |
| O=C(NCC1CCOCC1)c1cnc(Nc2ccc(F)cc2Cl)nc1C(F)(F)F | 0.4 µM | 85% | – | – | – | – | – | – | – |
| O=C(NCC1CCOCC1)c1cnc(Nc2cc(Cl)ccc2Cl)nc1C(F)(F)F | 0.1 µM | 85% | – | – | – | – | – | – | – |
| O=C(NCc1ccc(F)cc1)c1cnc(Nc2cccc(Cl)c2)nc1C(F)(F)F | 0.063 µM | 78% | – | 8 µM | 8 µM | 12 µM | 1.5 µM | 5 µM | – |
| O=C(NCC1CCNCC1)c1cnc(Nc2cccc(Cl)c2)nc1C(F)(F)F | 5 µM | 46% | – | – | – | – | – | – | – |
| CC(C)(C)c1ccc(Nc2ncc(C(=O)NCc3ccccc3)c(C(F)(F)F)n2)cc1 | > 25 µM | – | – | – | – | – | – | – | – |
| O=C(NCC1CCOCC1)c1cnc(Nc2cc(Cl)cc(Cl)c2)nc1C(F)(F)F | 0.033 µM | 85% | – | > 100 µM | 13 µM | 14 µM | 27 µM | 38 µM | – |
| COc1cccc(CNC(=O)c2cnc(Nc3cccc(Cl)c3)nc2C(F)(F)F)c1 | 25 µM | 20% | – | – | – | – | – | – | – |
| CC(=O)Nc1ccc(Nc2ncc(C(=O)NCc3ccccc3)c(C(F)(F)F)n2)cc1 | > 25 µM | – | – | – | – | – | – | – | – |
| O=C(NCC1CCOCC1)c1cnc(Nc2cc(Cl)ccc2F)nc1C(F)(F)F | 0.125 µM | 86% | – | 26 µM | 37 µM | > 100 µM | > 100 µM | 68 µM | – |
